Reference: paper PMC7175314, “Development of Novel ^111-In-Labelled DOTA Urotensin II Analogues for Targeting the UT Receptor Overexpressed in Solid Tumours” (Biomolecules, 2020)
Where a SMILES comes first, the peptide text is derived from it. Bridges are numbered along the chain shown (N, C = ends). [ ]: non-standard residue; d: D form. The star is where a group is joined. DOTA = O=C(O)CN1CCN(CC(=O)O)CCN(CC(=O)*)CCN(CC(=O)O)CC1; Pen = CC(C)(S)[C@H](N)C(=O)O; Orn = NCCC[C@H](N)C(=O)O; Ahx = NCCCCCC(=O)O

Legend:
human UT [1] = target: T1, human UT (Homo sapiens, UniProt Q9UKP6); assay: Competition binding of ^125I-hUII on HEK-293 cells expressing UT; settings: displacement of ^125I-hUII (0.2 nM), HEK-293 cells expressing human UT, 2 h 22 °C
T1 construct: expressed in transfected cells; host or cells: HEK-293
T1 sequence (Q9UKP6 1-389): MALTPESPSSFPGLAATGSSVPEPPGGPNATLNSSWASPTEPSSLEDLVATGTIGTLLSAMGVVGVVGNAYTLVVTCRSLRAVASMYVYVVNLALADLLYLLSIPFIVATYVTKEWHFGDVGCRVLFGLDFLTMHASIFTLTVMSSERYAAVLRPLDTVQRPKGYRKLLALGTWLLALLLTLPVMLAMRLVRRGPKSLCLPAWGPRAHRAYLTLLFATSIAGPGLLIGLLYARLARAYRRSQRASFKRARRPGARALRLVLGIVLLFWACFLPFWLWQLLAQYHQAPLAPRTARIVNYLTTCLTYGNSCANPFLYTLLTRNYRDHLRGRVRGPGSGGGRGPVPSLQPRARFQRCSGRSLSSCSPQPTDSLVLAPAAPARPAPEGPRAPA
Description: Cultured HEK-293 cells expressing UT-MYC were rinsed three times with PBS, dried under a cold air stream and stored at −80 °C until binding experiments. […] At the end of the incubation, cells were washed three times with assay buffer, solubilised with 1% SDS and the radioactivity was counted in a gamma counter (LKB Wallac, Evry, France).

human UT [2] = target: T1, human UT; assay: UT internalisation assay (ELISA) in HEK-293 cells expressing UT-MYC; format: cell-based; settings: 1 h, graded concentrations up to 10^−6 M
Description: For ELISA experiments, HEK-293 cells expressing UT-MYC were plated at 10,000 cells/well into white, 96-well plates (Corning, Bagneaux-sur-Loing, France), previously coated with poly-L-ornithine (100 µg/mL, 1 h, 37 °C) and incubated overnight in culture medium. […] Cells were permeabilised or not with Triton X-100 (0.05%, 5 min). Non-specific binding sites were blocked with FBS (10%) and normal donkey serum (NDS, 2%, 1 h). Cells were then incubated with anti-MYC antibody (1 h, 20 °C) followed by incubation with GAM-HRP (1 h, 20 °C). After washes, chemoluminescence was detected with an ELISA kit (ThermoFisher Scientific, Montigny-Le-Bretonneux, France) and the InfinitePro200 plate reader (TECAN FRANCE, Lyon). Data are expressed as the ratio between intensity measured on the permeabilised cells and that measured on the non-permeabilised cells, compared to the average control value.

in vivo = assay: in vivo; set-up: species or system Swiss (nu/nu) mice; settings: Swiss (nu/nu), mouse, iv, 2 MBq
Description: For tumour targeting studies, inocula (100 µL) containing a suspension of 5 × 10^6 freshly harvested A549 or DLD-1 cells in phosphate buffered-saline were injected subcutaneously into the right shoulder blade in Swiss (nu/nu) mice (n = 5 in each group). When the tumour size reached 250 mm^3 (approximatively 2-weeks), 2 MBq of ^111In-DOTA-hUII or ^111In-DOTA-urantide were injected into the tail vein. After 24 h, animals were sacrificed, and tumours were collected, directly frozen in isopentane (−50 °C) and stored at −80 °C.

human UT-GFP = target: T2, human UT-GFP (Homo sapiens, UniProt Q9UKP6); assay: UT internalisation by confocal microscopy in HEK-293 cells expressing UT-GFP; format: cell-based; settings: 10^−7 M, 1 h
T2 construct: expressed in transfected cells; host or cells: HEK-293 (transient)
T2 sequence (Q9UKP6 1-389): T1 sequence (Q9UKP6 1-389)
Description: For cytochemistry experiments, HEK-293 cells expressing UT-GFP were seeded at 70,000 cells/well into transparent, 24-well plates (Corning, Bagneaux-sur-Loing, France), previously coated with human fibronectin (25 µg/mL, overnight, 4 °C) and incubated overnight in culture medium. […] Cells were rinsed with PBS, fixed with paraformaldehyde (4%, 10 min) and counterstained with DAPI (1 µg/mL, 5 min) to label nuclei. Image analysis was performed by confocal microscopy (Leica TCS SP8 confocal laser scanning microscope).

human UT [3] = target: T1, human UT; assay: Calcium assay (fluo-4, FlexStation) in HEK-293 cells expressing UT; format: cell-based; settings: [Ca^2+]c increase, HEK-293 cells expressing human UT, 10^−11 to 10^−6 M
Description: HEK-293 cells expressing UT-MYC were plated at 50,000 cells/well into clear-bottom, black, 96-well plates (Corning, Bagneaux-sur-Loing, France), previously coated with poly-L-ornithine (100 µg/mL, 1 h, 37 °C) and incubated overnight in culture medium. After 24 h, cells were rinsed twice with HBSS buffer (20 mM HEPES, 0.5 mM MgCl2, 2.6 mM CaCl2, 7.7 mM Na2CO3, 1.4 mM MgSO4, 5.3 mM KCl, 138 mM NaCl, 0.1% BSA, 5.5 mM glucose, 2.5 mM probenecid, pH 7.4) (Sigma Aldrich, Saint-Quentin-Fallavier, France) and loaded (40 min at 37 °C) with the calcium-sensitive dye fluo-4 AM (ThermoFisher Scientific, Montigny-Le-Bretonneux, France) containing pluronic acid (20% in DMSO). […] Data were expressed as the ratio of maximum response to the average control value.

in vitro = in vitro ADME, human
Description: The mixture was incubated in a 5% CO2, 37 °C and 100 μL aliquots (in triplicates) were removed at different time points and treated with 200 μL of EtOH to precipitate serum proteins. Samples were then centrifuged for 15 min at 2500g and after centrifugation, 50 μL of supernatant was counted, and also analysed by thin layer chromatography to determine the amount of intact peptide and its metabolites in the serum.

[4] = set-up: species or system C57BL/6 mice; settings: mouse, in vivo, iv
Description: For biodistribution studies, C57BL6/6 wild-type mice were injected with ^111In-DOTA-hUII (3 MBq, 100 µL) into the tail vein. Mice were sacrificed at 4, 24, 48 and 72 h post-injection and blood and organs were collected. All samples were analysed with a gamma counter and the data presented were calculated as the percent injected dose per gram of tissue (% ID/g). Data were expressed as mean ± SEM obtained from four animals per kinetic time.

DLD-1 cells [5] = assay: Cell proliferation, DLD-1; format: cell-based, human; settings: 10^−9 or 10^−7 M, only observable after 48 h
DLD-1 cells [6] = assay: Cell migration assay (modified Boyden chamber), DLD-1; format: cell-based, human; settings: 10^−9 or 10^−7 M, 24 h
Description: (§1) DLD-1 and A549 cells were seeded (50,000 cells) on transwell filters with 8-µm pores previously coated with human fibronectin (25 µg/mL, 4 °C, overnight) in serum-free medium on the upper chamber. […] After 24 h incubation period at 37 °C, filters were rinsed with PBS and non-migrating cells were removed from the upper surface by using a cotton-swab. Migrating cells were fixed in successive baths of methanol (50, 70, 90 and 100%), stained with eosin and haematoxylin and filters were mounted on glass slides with Mowiol. Random phase contrast images of filters were then recorded, using a digital camera connected to a Nikon microscope (Eclipse TS-100) and image analysis was performed by using Image J’s Cell Counter. The data were represented as the ratio of treatment chemoattraction normalised to control.

A549 cells [7] = assay: Cell migration assay (modified Boyden chamber), A549; format: cell-based, human; settings: 10^−9 or 10^−7 M, 24 h
Description: as §1

A549 cells [8] = assay: Cell proliferation, A549; format: cell-based, human; settings: 10^−9 or 10^−7 M, only observable after 48 h
[9] = total radioactivity, Ratio tumour/muscle

Row | Compound | IC50 (human UT [1]) | internalisation rate of UT (ELISA) (human UT [2]) | tissue to tissue ratio at 24 h (in vivo) | tissue to tissue ratio at 24 h (in vivo; Ratio tumour/muscle) | accumulation of UT in cytosolic puncta (confocal microscopy) (human UT-GFP) | EC50 (human UT [3]) | tissue to tissue ratio at 24 h (in vivo; total radioactivity) | tissue to tissue ratio at 24 h (in vivo; [9]) | tissue to tissue ratio at 24 h (in vivo; tumour/muscle ratio) | also measured
1 | CC(C)[C@H](NC(=O)[C@@H]1CSSC[C@H](NC(=O)[C@H](CC(=O)O)NC(=O)[C@@H]2CCCN2C(=O)[C@@H](NC(=O)[C@H](CCC(=O)O)NC(=O)CCCCCNC(=O)CN2CCN(CC(=O)O)CCN(CC(=O)O)CCN(CC(=O)O)CC2)[C@@H](C)O)C(=O)N[C@@H](Cc2ccccc2)C(=O)N[C@@H](Cc2c[nH]c3ccccc23)C(=O)N[C@@H](CCCCN)C(=O)N[C@@H](Cc2ccc(O)cc2)C(=O)N1)C(=O)O [DOTA-hUII, DOTA-Ahx-ETPD[CFWKYC]V] | 9.13 ± 2.06 nM | exerted similar effects, with very close potency and efficacy | 2.85 ± 0.66 | 3.33 ± 0.96 | promoted a strong accumulation of UT in cytosolic puncta into cells | 19.4 ± 2.47 nM |  |  |  | 
2 | CC(C)[C@H](NC(=O)[C@@H]1CSSC(C)(C)[C@H](NC(=O)[C@H](CC(=O)O)NC(=O)CCCCCNC(=O)CN2CCN(CC(=O)O)CCN(CC(=O)O)CCN(CC(=O)O)CC2)C(=O)N[C@@H](Cc2ccccc2)C(=O)N[C@H](Cc2c[nH]c3ccccc23)C(=O)N[C@@H](CCCN)C(=O)N[C@@H](Cc2ccc(O)cc2)C(=O)N1)C(=O)O [DOTA-urantide, DOTA-Ahx-D[Pen-F-W-Orn-YC]V] ({DOTA-Ahx}-D[Pen]F[dW][Orn]YCV-OH; disulfide 2-7) |  | failed to provoke UT internalisation | 2.08 ± 0.45 | 2.47 ± 0.15 | ineffective |  |  |  |  | 
3 | CC(C)[C@H](NC(=O)[C@@H]1CSSC[C@H](NC(=O)[C@H](CC(=O)O)NC(=O)[C@@H]2CCCN2C(=O)[C@@H](NC(=O)[C@H](CCC(=O)O)NC(=O)CCCCCNC(=O)CN2CCN(CC(=O)O)CCN(CC(=O)O)CCN(CC(=O)O)CC2)[C@@H](C)O)C(=O)N[C@@H](Cc2ccccc2)C(=O)N[C@@H](Cc2c[nH]c3ccccc23)C(=O)N[C@@H](CCCCN)C(=O)N[C@@H](Cc2ccc(O)cc2)C(=O)N1)C(=O)O [^111In-DOTA-hUII, metal not drawn] |  |  |  |  |  |  | 2.85 ± 0.66 | 3.33 ± 0.96 | ~2.5 | Percent of Radiolabelled Peptide (in vitro): 98 ± 2 (%); metabolised at 3 h, 0.6 µM (in vitro; human, serum): 30%; remaining at 1 h, 0.6 µM (in vitro; human, serum): 82 ± 2%; remaining at 3 h, 0.6 µM (in vitro; human, serum): 71 ± 4%; radioactive DOTA-peptide cleared from animals [4]: more than 90%
4 | CC(C)[C@H](NC(=O)[C@@H]1CSSC(C)(C)[C@H](NC(=O)[C@H](CC(=O)O)NC(=O)CCCCCNC(=O)CN2CCN(CC(=O)O)CCN(CC(=O)O)CCN(CC(=O)O)CC2)C(=O)N[C@@H](Cc2ccccc2)C(=O)N[C@H](Cc2c[nH]c3ccccc23)C(=O)N[C@@H](CCCN)C(=O)N[C@@H](Cc2ccc(O)cc2)C(=O)N1)C(=O)O [^111In-DOTA-urantide, metal not drawn] ({DOTA-Ahx}-D[Pen]F[dW][Orn]YCV-OH; disulfide 2-7) |  |  |  |  |  |  | 2.08 ± 0.45 | 2.47 ± 0.15 | ~2.5 | 
5 | CC(C)[C@H](NC(=O)[C@@H]1CSSC[C@H](NC(=O)[C@H](CC(=O)O)NC(=O)[C@@H]2CCCN2C(=O)[C@@H](NC(=O)[C@@H](N)CCC(=O)O)[C@@H](C)O)C(=O)N[C@@H](Cc2ccccc2)C(=O)N[C@@H](Cc2c[nH]c3ccccc23)C(=O)N[C@@H](CCCCN)C(=O)N[C@@H](Cc2ccc(O)cc2)C(=O)N1)C(=O)O [hUII, H2N-ETPDc-[CFWKYC]V-CO2H] |  | provoked a dose-dependent increase in internalisation rate of UT |  |  | promoted a strong accumulation of UT in cytosolic puncta into cells |  |  |  |  | proliferation rate (DLD-1 cells [5]): increase the proliferation rate; chemotactic migration (DLD-1 cells [6]): stimulated chemotactic migration; chemotactic migration (A549 cells [7]): stimulated chemotactic migration; proliferation rate (A549 cells [8]): increase the proliferation rate
6 | CC(C)[C@H](NC(=O)[C@@H]1CSSC(C)(C)[C@H](NC(=O)[C@@H](N)CC(=O)O)C(=O)N[C@@H](Cc2ccccc2)C(=O)N[C@H](Cc2c[nH]c3ccccc23)C(=O)N[C@@H](CCCN)C(=O)N[C@@H](Cc2ccc(O)cc2)C(=O)N1)C(=O)O [urantide, c-[Pen^5, D-Trp^7, Orn^8]hUII4-11, reference compound] (H-D[Pen]F[dW][Orn]YCV-OH; disulfide 2-7; N-terminus and C-terminus assumed) | 29 ± 11.2 nM | failed to provoke UT internalisation |  |  | ineffective | 50.5 ± 16.1 nM |  |  |  | 
